Source: patent publication US20240426776A1, “RAPID DIFFERENTIATION OF ANTIBIOTIC-SUSCEPTIBLE AND -RESISTANT BACTERIA THROUGH MEDIATED EXTRACELLULAR ELECTRON TRANSFER” (priority 2021, published 2024)
In brackets after ≈: the same amount, converted by molar mass. Several values for one entry are separate records, joined by “and”; a condition that tells them apart may be missing. Equal values may be shown once. Read-outs that look alike come from different tables or passages of the source.

Columns and labels:
[1] = test system: Acinetobacter baumannii (strains 35, 78, 83, and 102); test: READAS electrochemical current response with PMS mediator (ASIn); format: cell-based; conditions: for ASIn (antibiotic susceptibility index), single replicates: ASI2, 15 μM PMS, 0.1 OD600
Method: (§1) For initial quality control, cyclic voltammetry scan was recorded from 0.5 V to −0.5 V then back to 0.5 V using the potentiostat 13 configuration. The potentiostat controls the working electrode voltage relative to the reference electrode.
(§2) For antibiotic susceptibility experiments, the working electrode 6 was controlled at 0 VAg/AgCl. The current can also be measured and analyzed for determining resistance/susceptibility of pathogens to drugs (e.g., antibiotics) using other devices such as a multiplexer or any interface instrument that can receive one or more data inputs and forward it to an output for analysis and feedback. In particular, such one or more data inputs can be directed to a processor, signal processor, computer-based system, etc. and thereafter/correspondingly any such interface instrument can receive instructions from, such processing instruments as better detailed in the description for the embodiment of FIG. 14 below. It is also to be noted that any induced currents undergo a decision methodology that can be interpreted by such a configured processor, signal processor, computer-based system, etc. for aiding in the determination of antibiotic susceptibility/resistance, such as, the methodology better detailed in the description of FIG. 6 below.
(§3) Turning back to the discussion for FIG. 1B but also FIG. 1A, an initial baseline was established in the MH media, PMS, and antibiotic mixture for 50-60 min before inoculating the electrochemical cell with a bacteria cell 2. On placing the bacteria cell 2 (again see FIG. 1A) into the electrochemical cell 10, the bacteria cell 2 undergoes metabolic reactions and generates electrons 4 through metabolic processes, as was generally described above. The electron transfer mediator used herein, e.g., PMS, thereafter, operates as an electron carrier in solution 3, and provides generated electrons 4 to the working electrode 6 (herein was aided by stirring mechanism 21, as shown in FIG. 1B). The working electrode 6 thus accepts the electrons provided by the reduced mediators (PMSr) so as to generate currents and returns the mediator back to its oxidized form ([…]) to keep the monitoring of respiration induced currents if viable.
(§4) Tests disclosed in the example embodiments herein for the purpose of illustration were conducted with an inoculum of 0.1 OD600. A cell density equating to 0.1 OD600 was determined for each species by serial dilution. Briefly, overnight cultures were adjusted to an OD600 of 0.1 and then serially diluted (10^0 to 10^−11) in a multi-well plate before transferring 10 μL of each dilution to separate TSA plates and grown overnight for 16-18 h. The colony forming units per mL (CFU/mL) were quantified using a drop plate method as known to those skilled in the art. Each measurement was replicated at least four times.
(§5) For performing example experimental tests disclosed in the embodiments herein for further reduction to practice, an overnight culture of the bacteria utilized was prepared. Such a culture was prepared by transferring, for example, two colonies from an agar streak plate into 8-ml MH broth and cultured overnight in an air incubator (37° C.) rotating at 120 rpm for 16-18 h. A 5-ml aliquot of culture was adjusted to 0.5 OD600 with fresh MH media and then centrifuged at 6000 rpm (4185×g) for 8 min and the supernatant decanted. The pellet was then resuspended in 5-mL of 30° C. (S. aureus experiments) or 37° C. (all others) MH media. After resuspension, 2 mL of the culture was used to verify optical density. Finally, 500 μL of the culture was inoculated to the electrochemical cuvettes by pipette through the cap inoculation port (2.5-ml final volume in the cuvette).
It is to be noted that a CLSI resistance breakpoint concentration is a defined concentration of a susceptible antibiotic that treats the bacteria. […]

[2] = test system: Staphylococcus aureus (strains 29213 and 43300); test: as above; format: cell-based; conditions: for ASIn (antibiotic susceptibility index), single replicates: tobramycin 10× breakpoint (160 μg/mL), ASI10, 15 μM PMS, 0.1 OD600
Method: Each measurement was replicated at least four times.
(S. aureus experiments) or 37° C. (all others) MH media.
The current responses measured follows a sigmoidal curve structure.
As a second example method of operation, the S. aureus strains selected from Table 2 were assessed. Initially, a 2×CLSI resistance breakpoint concentrations for two antibiotics oxacillin (12 μg/mL) and tobramycin (32 μg/mL) were used for the example method of operation. The ASI2<0.4 and it was concluded that the concentration of the antibiotics was insufficient to classify the strains as antibiotic-susceptible or -resistant. S. aureus was then treated with 4×, 6×, 8×, 10×, and 20× the breakpoint concentration of oxacillin and was compared to the control as depicted in FIG. 8A. […] S. aureus was also treated with 4× and 10× the breakpoint concentration of tobramycin and was compared to the control depicted in FIG. 8B. […] The efficacy of antibiotic was proportional to the concentration when a high cell density (1.1×10^8 CFU/mL) was used.
The ASIn analysis time for classifying the strains as resistant or susceptible for tobramycin treatment was 33-78 min which was 30 min less than needed for detecting oxacillin susceptibility which required 60-96 min.

[3] = test system: Acinetobacter baumannii (strains 35, 78, 83, and 102); conditions: cited from earlier work
[4] = test system: Escherichia coli (strains 61 and 77); test: READAS electrochemical current response with PMS mediator (ASIn); format: cell-based; conditions: for ASIn (antibiotic susceptibility index), single replicates: ASI2, 15 μM PMS, 0.1 OD600
Method: as §1, §2, §3, §4, §5
The magnitude of the current response was defined as the current magnitude at the inflection point between the exponential growth and the saturated current response.

[5] = test system: Acinetobacter baumannii (strains 35, 78, 83, and 102); test: Microdilution antibiotic susceptibility assay (MIC, CLSI guidelines); format: cell-based; conditions: for MIC: Acinetobacter baumannii, MH media, 16-18 h, 37° C., read-out: estimated minimum inhibitory concentration from this study
Method: (§6) Testing for S. aureus susceptibility to oxacillin differed with incubation at 30° C. for 18-24 h in MH media supplemented with 2% NaCl.
(§7) Values listed in Table 2 below include the estimated minimum inhibitory concentration from this study (μg/mL), the determination of(S) sensitive or (R) resistant microbes according to CLSI criteria, and the CLSI guidelines (μg/mL) for the species being tested. Empty cells were not evaluated.

[6] = test system: Escherichia coli (strains 61 and 77); test: as above; format: cell-based; conditions: for MIC: Escherichia coli, MH media, 16-18 h, 37° C., read-out: estimated minimum inhibitory concentration from this study
Method: as §6, §7

[7] = strain 78 (resistant), imipenem 2×CLSI resistance breakpoint
[8] = strain 102 (susceptible), imipenem 2×CLSI resistance breakpoint

NC[C@H]1O[C@H](O[C@H]2[C@H](O)[C@@H](O[C@H]3O[C@H](CO)[C@@H](O)[C@H](N)[C@H]3O)[C@H](N)C[C@@H]2N)[C@H](N)C[C@@H]1O [Tobramycin, tobramycin]
average ASI2 (average±SE) ([1]; strain 35 (susceptible), tobramycin 2×CLSI resistance breakpoint): 0.63±0.13 | ASIn (antibiotic susceptibility index), single replicates ([1]; strain 35 (susceptible), tobramycin 2×CLSI resistance breakpoint (32 μg/mL)): 0.48 and 1 and 0.4 and 0.64 | ASIn (antibiotic susceptibility index), single replicates ([1]; strain 35 (susceptible), tobramycin 2×CLSI resistance breakpoint (32 μg/mL), listed as tobramycin): 0.5 | average ASI2 (average±SE) ([1]; strain 83 (resistant), tobramycin 2×CLSI resistance breakpoint): 0.08±0.06 | ASIn (antibiotic susceptibility index), single replicates ([1]; strain 83 (resistant), tobramycin 2×CLSI resistance breakpoint (32 μg/mL)): −0.06 and −0.08 and 0.17 and 0.09 and 0.26 | ASIn (antibiotic susceptibility index), single replicates ([1]; strain 83 (resistant), tobramycin 2×CLSI resistance breakpoint (32 μg/mL), listed as tobramycin): 0.3 | decrease in current compared to the control ([1]; susceptible strain (35), tobramycin 2×CLSI resistance breakpoint, 32 μg/mL, FIG. 4A): 50% | current response with increasing antibiotic concentration ([2]; oxacillin 4×, 6×, 8×, 10×, 20× breakpoint (FIG. 8A), tobramycin 4× and 10× (FIG. 8B), […]10^8 CFU/mL): decreased the current magnitude to ASIn≥0.4 and increased the response time | ASIn (antibiotic susceptibility index), single replicates ([2]; strain 29213 (susceptible)): 0.52 and 0.6 and 0.16 and 0.34 | average ASI10 (±SE) ([2]; strain 43300 (resistant), tobramycin 10× (160 μg/mL)): −0.10±0.14 | ASIn (antibiotic susceptibility index), single replicates ([2]; strain 43300 (resistant)): 0.12 and −0.01 and −0.42 | CLSI guidelines (resistance breakpoint) for the species [3]: 16 µg/mL | average ASI2 (±SE) ([4]; strain 61 (resistant), tobramycin 2× (32 μg/mL)): 0.17±0.1 | ASIn (antibiotic susceptibility index), single replicates ([4]; strain 61 (resistant), tobramycin 2× breakpoint (32 μg/mL)): 0.23 and 0.15 and 0.47 and 0.16 and −0.16 | average ASI2 (±SE) ([4]; strain 77 (susceptible), tobramycin 2× (32 μg/mL)): 0.62±0.15 | ASIn (antibiotic susceptibility index), single replicates ([4]; strain 77 (susceptible), tobramycin 2× breakpoint (32 μg/mL)): 0.92 and 0.4 and 0.86 and 0.33 | MIC ([5]; strain 35): 0.5 µg/mL (≈ 1.07 µM) | MIC ([5]; strain 83): 128 µg/mL (≈ 274 µM) | sensitive or resistant according to CLSI criteria ([5]; strain 35): S | sensitive or resistant according to CLSI criteria ([5]; strain 83): R | MIC ([6]; strain 61): 16 µg/mL (≈ 34.2 µM) | MIC ([6]; strain 77): 0.5 µg/mL (≈ 1.07 µM) | sensitive or resistant according to CLSI criteria ([6]; strain 61): R | sensitive or resistant according to CLSI criteria ([6]; strain 77): S

C[C@@H](O)[C@H]1C(=O)N2C(C(=O)O)=C(SCCN=CN)C[C@H]12 [Imipenem, imipenem]
average ASI2 (average±SE) [1, 7]: 0.02±0.13 | ASIn (antibiotic susceptibility index), single replicates [1, 7]: 0.04 and −0.5 and 0.24 and 0.19 and 0.16 | average ASI2 (average±SE) [1, 8]: 0.47±0.08 | ASIn (antibiotic susceptibility index), single replicates [1, 8]: 0.37 and 0.36 and 0.67 and 0.31 and 0.65 | average ASI2 (±SE) ([4]; strain 61 (resistant), imipenem 2× (8 μg/mL)): −0.20±0.45 | ASIn (antibiotic susceptibility index), single replicates ([4]; strain 61 (resistant), imipenem 2× breakpoint (8 μg/mL)): 0.26 and −1.52 and 0.52 and −0.08 | average ASI2 (±SE) ([4]; strain 77 (susceptible), imipenem 2× (8 μg/mL)): 0.86±0.11 | ASIn (antibiotic susceptibility index), single replicates ([4]; strain 77 (susceptible), imipenem 2× breakpoint (8 μg/mL)): 0.98 and 0.97 and 0.96 and 0.54 | MIC ([5]; strain 78): 32 µg/mL (≈ 107 µM) | MIC ([5]; strain 102): 1 µg/mL (≈ 3.34 µM) | sensitive or resistant according to CLSI criteria ([5]; strain 78): R | sensitive or resistant according to CLSI criteria ([5]; strain 102): S | MIC ([6]; strain 61): 32 µg/mL (≈ 107 µM) | MIC ([6]; strain 77): 0.5 µg/mL (≈ 1.67 µM) | sensitive or resistant according to CLSI criteria ([6]; strain 61): R | sensitive or resistant according to CLSI criteria ([6]; strain 77): S
